According to publication PMC8073777, “Design, Synthesis, Biological Evaluation and In Silico Studies of Pyrazole-Based NH2-Acyl Oseltamivir Analogues as Potent Neuraminidase Inhibitors” (Pharmaceuticals, 2021):

The compounds below were run against A/H3N2 influenza NA (Influenza A virus (H3N2), UniProt Q91IQ5). Conditions: 10 µM.
Assay type: biochemical, A/H3N2 influenza virus (clinical isolate from Hong Kong)

Compound	Inhibitory rate against A/H3N2 influenza NA [%]
CCC(CC)O[C@@H]1C=C(C(=O)O)C[C@H](NC(=O)c2cnn(Cc3ccccc3)c2)[C@H]1NC(C)=O [Compound 6a, (3R,4R,5S)-4-acetamido-5-(1-benzyl-1H-pyrazole-4-carboxamido)-3-(pentan-3-yloxy) cyclohex-1-ene-1-carboxylic acid]	32.02
CCC(CC)O[C@@H]1C=C(C(=O)O)C[C@H](NC(=O)c2cnn(Cc3ccccc3Cl)c2)[C@H]1NC(C)=O [Compound 6b, (3R,4R,5S)-4-acetamido-5-(1-(2-chlorobenzyl)-1H-pyrazole-4-carboxamido)-3-(pentan-3-yloxy) cyclohex-1-ene-1-carboxylic acid]	18.88
CCC(CC)O[C@@H]1C=C(C(=O)O)C[C@H](NC(=O)c2cnn(Cc3cccc(Cl)c3)c2)[C@H]1NC(C)=O [Compound 6c, (3R,4R,5S)-4-acetamido-5-(1-(3-chlorobenzyl)-1H-pyrazole-4-carboxamido)-3-(pentan-3-yloxy) cyclohex-1-ene-1-carboxylic acid]	23.88
CCC(CC)O[C@@H]1C=C(C(=O)O)C[C@H](NC(=O)c2cnn(Cc3cccc([N+](=O)[O-])c3)c2)[C@H]1NC(C)=O [Compound 6d, (3R,4R,5S)-4-acetamido-5-(1-(3-nitrobenzyl)-1H-pyrazole-4-carboxamido)-3-(pentan-3-yloxy) cyclohex-1-ene-1-carboxylic acid]	12.26
CCC(CC)O[C@@H]1C=C(C(=O)O)C[C@H](NC(=O)c2cnn(Cc3cccc(OC)c3)c2)[C@H]1NC(C)=O [Compound 6e, (3R,4R,5S)-4-acetamido-5-(1-(3-methoxybenzyl)-1H-pyrazole-4-carboxamido)-3-(pentan-3-yloxy) cyclohex-1-ene-1-carboxylic acid]	23.37
CCC(CC)O[C@@H]1C=C(C(=O)O)C[C@H](NC(=O)c2cnn(Cc3ccc(OC)cc3)c2)[C@H]1NC(C)=O [Compound 6f, (3R,4R,5S)-4-acetamido-5-(1-(4-methoxybenzyl)-1H-pyrazole-4-carboxamido)-3-(pentan-3-yloxy) cyclohex-1-ene-1-carboxylic acid]	26.79
CCC(CC)O[C@@H]1C=C(C(=O)O)C[C@H](NC(=O)c2cnn(Cc3ccc(C(F)(F)F)cc3)c2)[C@H]1NC(C)=O [Compound 6g, (3R,4R,5S)-4-acetamido-3-(pentan-3-yloxy)-5-(1-(4-(trifluoromethyl)benzyl)-1H-pyrazole-4-carboxamido) cyclohex-1-ene-1-carboxylic acid]	21.72
CCC(CC)O[C@@H]1C=C(C(=O)O)C[C@H](NC(=O)c2cnn(-c3ccccc3C)c2)[C@H]1NC(C)=O [Compound 6h, (3R,4R,5S)-4-acetamido-3-(pentan-3-yloxy)-5-(1-(o-tolyl)-1H-pyrazole-4-carboxamido) cyclohex-1-ene-1-carboxylic acid]	38.37
CCC(CC)O[C@@H]1C=C(C(=O)O)C[C@H](NC(=O)c2cnn(-c3ccc(C)cc3)c2)[C@H]1NC(C)=O [Compound 6i, (3R,4R,5S)-4-acetamido-3-(pentan-3-yloxy)-5-(1-(p-tolyl)-1H-pyrazole-4-carboxamido) cyclohex-1-ene-1-carboxylic acid]	52.31
CCC(CC)O[C@@H]1C=C(C(=O)O)C[C@H](NC(=O)c2cnn(-c3ccc(OC)cc3)c2)[C@H]1NC(C)=O [Compound 6j, (3R,4R,5S)-4-acetamido-5-(1-(4-methoxyphenyl)-1H-pyrazole-4-carboxamido)-3-(pentan-3-yloxy) cyclohex-1-ene-1-carboxylic acid]	34.15
CCC(CC)O[C@@H]1C=C(C(=O)O)C[C@H](NC(=O)c2cnn(-c3ccc(Cl)cc3)c2)[C@H]1NC(C)=O [Compound 6k, (3R,4R,5S)-4-acetamido-5-(1-(4-chlorophenyl)-1H-pyrazole-4-carboxamido)-3-(pentan-3-yloxy) cyclohex-1-ene-1-carboxylic acid]	25.67
CCC(CC)O[C@@H]1C=C(C(=O)O)C[C@H](NC(=O)c2cc(-c3ccccc3)n[nH]2)[C@H]1NC(C)=O [Compound 12a, (3R,4R,5S)-4-acetamido-3-(pentan-3-yloxy)-5-(3-phenyl-1H-pyrazole-5-carboxamido) cyclohex-1-ene-1-carboxylic acid]	42.81
CCC(CC)O[C@@H]1C=C(C(=O)O)C[C@H](NC(=O)c2cc(-c3ccc(Cl)cc3)n[nH]2)[C@H]1NC(C)=O [Compound 12b, (3R,4R,5S)-4-acetamido-5-(3-(4-chlorophenyl)-1H-pyrazole-5-carboxamido)-3-(pentan-3-yloxy) cyclohex-1-ene-1-carboxylic acid]	50.43
CCC(CC)O[C@@H]1C=C(C(=O)O)C[C@H](NC(=O)c2cc(-c3ccc(F)cc3)n[nH]2)[C@H]1NC(C)=O [Compound 12c, (3R,4R,5S)-4-acetamido-5-(3-(4-fluorophenyl)-1H-pyrazole-5-carboxamido)-3-(pentan-3-yloxy) cyclohex-1-ene-1-carboxylic acid]	56.45
CCC(CC)O[C@@H]1C=C(C(=O)O)C[C@H](NC(=O)c2cc(-c3ccc(C(F)(F)F)cc3)n[nH]2)[C@H]1NC(C)=O [Compound 12d, (3R,4R,5S)-4-acetamido-3-(pentan-3-yloxy)-5-(3-(4-(trifluoromethyl)phenyl)-1H-pyrazole-5-carboxamido) cyclohex-1-ene-1-carboxylic acid]	46.7
CCC(CC)O[C@@H]1C=C(C(=O)O)C[C@H](NC(=O)c2cc(-c3ccc(OC)cc3)n[nH]2)[C@H]1NC(C)=O [Compound 12e, (3R,4R,5S)-4-acetamido-5-(3-(4-methoxyphenyl)-1H-pyrazole-5-carboxamido)-3-(pentan-3-yloxy) cyclohex-1-ene-1-carboxylic acid]	42.02
CCC(CC)O[C@@H]1C=C(C(=O)O)C[C@H](NC(=O)c2cc(-c3cccs3)n[nH]2)[C@H]1NC(C)=O [Compound 12f, (3R,4R,5S)-4-acetamido-3-(pentan-3-yloxy)-5-(3-(thiophen-2-yl)-1H-pyrazole-5-carboxamido) cyclohex-1-ene-1-carboxylic acid]	40.02
CCC(CC)O[C@@H]1C=C(C(=O)O)C[C@H](NC(=O)c2cc(-c3ccc(Cl)cc3)nn2CC2CC2)[C@H]1NC(C)=O [Compound 16a, (3R,4R,5S)-4-acetamido-5-(3-(4-chlorophenyl)-1-(cyclopropylmethyl)-1H-pyrazole-5-carboxamido)-3-(pentan-3-yloxy) cyclohex-1-ene-1-carboxylic acid]	31.50
CCC(CC)O[C@@H]1C=C(C(=O)O)C[C@H](NC(=O)c2cc(-c3ccc(Cl)cc3)nn2CC2CCC2)[C@H]1NC(C)=O [Compound 16b, (3R,4R,5S)-4-acetamido-5-(3-(4-chlorophenyl)-1-(cyclobutylmethyl)-1H-pyrazole-5-carboxamido)-3-(pentan-3-yloxy) cyclohex-1-ene-1-carboxylic acid]	39.81
